We go through 23 molecules from patent US10730865B2, “Compounds for modulating aquaporins” (APOGLYX AB, priority 2016, dated 2020).

Molecules are shown by their SMILES.

The target in this experiment is human aquaporin 9 (Homo sapiens (Human), UniProt O43315). The experiment is described as follows: Calcein quenching fluostar assay (inhibition of human aquaporin 9). It is filed as cell-based. Particulars: Human AQP9 cell line; example compounds used as 1 mM stock solutions in DMSO. The protocol: Calcein Quenching Fluostar Assay
Sequence of human aquaporin 9 (O43315 whole entry): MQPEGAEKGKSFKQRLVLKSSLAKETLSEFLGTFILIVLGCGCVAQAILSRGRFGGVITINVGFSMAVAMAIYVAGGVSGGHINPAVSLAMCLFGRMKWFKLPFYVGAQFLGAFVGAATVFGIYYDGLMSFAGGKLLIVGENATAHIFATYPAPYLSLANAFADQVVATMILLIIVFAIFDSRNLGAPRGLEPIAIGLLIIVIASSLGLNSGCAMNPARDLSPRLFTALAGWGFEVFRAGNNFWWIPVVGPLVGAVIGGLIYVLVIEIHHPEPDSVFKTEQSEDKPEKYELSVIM
A calcein quenching fluostar assay was performed in order to investigate the biological activity of the newly synthesized examples 1 to 57. This type of assay is disclosed in J. Biol. Chem., 2011, 286, 44319-44325 and Am. J. Physiol. Renal Physiol. (2010), 298, F224-230.
1) Two days prior to commencement of the assay, seed 10,000 cells/well of 96 well black clear bottom plate (Greiner Poly-lysin plate). A 1:1 mix of Dulbecco's Modified Eagle's Medium: Nutrient Mixture F-12 (DMEM: F12) was obtained from Gibco. Tetracycline stock of 5 mg/ml in 96% ethanol is used. Medium: DMEM/F12/10% Donor Bovine Serum, Human AQP9 cell line+1:270,000 tetracyclin, mouse AQP9 cell line+1:2,700,000 tetracycline.
2) Day of assay: Flick/slam off the medium and add 50 μl/well of loading solution: 5 ml DMEM/F12/10% Donor Bovine Serum, 25 μl Calcein AM—from freshly dissolved aliquot in 50 μl DMSO (VWR #734-1434), and 100 μl Probenecid.
3) Incubate the well for 90 minutes at 37° C.
4) Perform one wash with 75 μl wash buffer.
5) Add 75 μl of an example compound prepared in wash buffer per well.
Example compounds are prepared in 500 μl U bottom PP plates (NUNC). 2.7 μl Substance in DMSO are added to row A; 180 μl of wash buffer+1% DMSO are added to rows B—H. 90 μl from row A are transferred and mixed with all other wells (up to row G) to make a 3-fold dilution series.
6) Assay in FLUOstar Optima at 25° C. Settings buffer addition at 135 μl/seconds, add 75 μl/well, record time course for 30 seconds, add sucrose buffer 3.6 seconds into recording.
7) Normalization to initial in Excel.
8) Fit to “exponential decay” function in GraphPad Prism 5.0, then arrange half live shrinking values according to wells and fit dose-response curves.
The EC50 is the concentration giving half of the maximal effect. For the molecule `CCc1nnc(SCC(=O)Nc2nnc(-c3ccc(OC)cc3)s2)n1-c1ccccc1` [Example 1, 2-[(5-ethyl-4-phenyl-4H-1,2,4-triazol-3-yl)sulfanyl]-N-[5-(4-methoxyphenyl)-1,3,4-thiadiazol-2-yl]acetamide], the EC50 was 173 nM.
The same measure, in the same setting: under `CCc1nnc(SCC(=O)Nc2nnc(-c3ccc(OC)cc3)s2)n1CC` [Example 2, 2-[(diethyl-4H-1,2,4-triazol-3-yl)sulfanyl]-N-[5-(4-methoxyphenyl)-1,3,4-thiadiazol-2-yl]acetamide] stands 59 nM.
Regarding `CCn1c(Cc2ccccc2)nnc1SCC(=O)Nc1nnc(-c2ccc(OC)cc2)s1` [Example 3, 2-[(5-benzyl-4-ethyl-4H-1,2,4-triazol-3-yl)sulfanyl]-N-[5-(4-methoxyphenyl)-1,3,4-thiadiazol-2-yl]acetamide], the EC50 was 195 nM and the pEC50 in the inhibition of human aquaporin 9 was 6.7.
Regarding `CCn1c(OCC(=O)Nc2nnc(-c3ccc(OC)cc3)s2)nnc1-c1ccc(F)cc1` [Example 4, 2-{[4-ethyl-5-(4-fluorophenyl)-4H-1,2,4-triazol-3-yl]oxy}-N-[5-(4-methoxyphenyl)-1,3,4-thiadiazol-2-yl]acetamide], the EC50 is 175 nM.
On the same count and under the same terms, to `CCn1c(C)nnc1SCC(=O)Nc1nnc(-c2ccc(S(C)(=O)=O)cc2)s1` [Example 5, 2-[(4-ethyl-5-methyl-4H-1,2,4-triazol-3-yl)sulfanyl]-N-[5-(4-methanesulfonylphenyl)-1,3,4-thiadiazol-2-yl]acetamide] belongs 455 nM.
With `CCn1c(SCC(=O)Nc2nnc(-c3ccc(S(C)(=O)=O)cc3)s2)nnc1C(C)C` [Example 6, 2-{[4-ethyl-5-(propan-2-yl)-4H-1,2,4-triazol-3-yl]sulfanyl}-N-[5-(4-methanesulfonylphenyl)-1,3,4-thiadiazol-2-yl]acetamide], the EC50 is 192 nM and the pEC50 in the inhibition of human aquaporin 9 was 6.7.
The matching figures for `CCn1c(SCC(=O)Nc2nnc(-c3ccc(S(C)(=O)=O)cc3)s2)nnc1C1CC1` [Example 7, 2-[(5-cyclopropyl-4-ethyl-4H-1,2,4-triazol-3-yl)sulfanyl]-N-[5-(4-methanesulfonylphenyl)-1,3,4-thiadiazol-2-yl]acetamide]: 105 nM and 7.
For `CCc1nnc(SCC(=O)Nc2nnc(-c3ccc(S(C)(=O)=O)cc3)s2)n1CC` [Example 8, 2-[(diethyl-4H-1,2,4-triazol-3-yl)sulfanyl]-N-[5-(4-methanesulfonylphenyl)-1,3,4-thiadiazol-2-yl]acetamide] the same measures were 66 nM and 7.2.
`CCn1c(SCC(=O)Nc2ccc(-c3ccc(OC)cc3)nn2)nnc1-c1ccc(F)cc1` [Example 9, 2-{[4-ethyl-5-(4-fluorophenyl)-4H-1,2,4-triazol-3-yl]sulfanyl}-N-[6-(4-methoxyphenyl)pyridazin-3-yl]acetamide]: the EC50 was 87 nM.
On to `CCc1nnc(SCC(=O)Nc2nnc(-c3ccc(OC)cc3)s2)n1C` [Example 10, 2-[(5-ethyl-4-methyl-4H-1,2,4-triazol-3-yl)sulfanyl]-N-[5-(4-methoxyphenyl)-1,3,4-thiadiazol-2-yl]acetamide], for which the EC50 is 101 nM and the pEC50 in the inhibition of human aquaporin 9 is 7.
For `COc1ccc(-c2nnc(NC(=O)CSc3nnc(C)n3-c3ccccc3)s2)cc1` [Example 11, N-[5-(4-methoxyphenyl)-1,3,4-thiadiazol-2-yl]-2-[(5-methyl-4-phenyl-4H-1,2,4-triazol-3-yl)sulfanyl]acetamide] the same measures were 394 nM and 6.4.
As for `CCc1nnc(SCC(=O)Nc2nnc(-c3ccc(SC)cc3)s2)n1CC` [Example 12], the EC50 is 57 nM.
Consider `CCc1nnc(SCC(=O)Nc2nnc(-c3ccc(OCC(C)C)cc3)s2)n1CC` [Example 13, 2-[(diethyl-4H-1,2,4-triazol-3-yl)sulfanyl]-N-{5-[4-(2-methylpropoxy)phenyl]-1,3,4-thiadiazol-2-yl}acetamide], for which the EC50 was 101 nM and the pEC50 in the inhibition of human aquaporin 9 is 7.
For `CCc1ccc(-c2nnc(NC(=O)CSc3nnc(CC)n3CC)s2)cc1` [Example 14, 2-[(diethyl-4H-1,2,4-triazol-3-yl)sulfanyl]-N-[5-(4-ethylphenyl)-1,3,4-thiadiazol-2-yl]acetamide] the same measures were 65 nM and 7.2.
Turning to `CCCc1ccc(-c2nnc(NC(=O)CSc3nnc(CC)n3CC)s2)cc1` [Example 15, 2-[(diethyl-4H-1,2,4-triazol-3-yl)sulfanyl]-N-[5-(4-propylphenyl)-1,3,4-thiadiazol-2-yl]acetamide], the EC50 is 57 nM.
As to `CCCCc1ccc(-c2nnc(NC(=O)CSc3nnc(CC)n3CC)s2)cc1` [Example 16, 2-[(diethyl-4H-1,2,4-triazol-3-yl)sulfanyl]-N-[5-(4-butylphenyl)-1,3,4-thiadiazol-2-yl]acetamide], the EC50 is 179 nM.
`CCc1nnc(SCC(=O)Nc2nnc(-c3ccccc3)s2)n1CC` [Example 17, 2-[(diethyl-4H-1,2,4-triazol-3-yl)sulfanyl]-N-(5-phenyl-1,3,4-thiadiazol-2-yl)acetamide]: the EC50 was 127 nM and the pEC50 in the inhibition of human aquaporin 9 is 6.9.
Consider `CCc1nnc(SCC(=O)Nc2nnc(-c3ccc4c(c3)CCO4)s2)n1CC` [Example 18, 2-[(diethyl-4H-1,2,4-triazol-3-yl)sulfanyl]-N-[5-(2,3-dihydro-1-benzofuran-5-yl)-1,3,4-thiadiazol-2-yl]acetamide], for which the EC50 was 124 nM and the pEC50 in the inhibition of human aquaporin 9 is 6.9.
Take `CCc1nnc(SCC(=O)Nc2nnc(-c3ccc(CC(C)C)cc3)s2)n1CC` [Example 19, 2-[(diethyl-4H-1,2,4-triazol-3-yl)sulfanyl]-N-{5-[4-(2-methylpropyl)phenyl]-1,3,4-thiadiazol-2-yl}acetamide]: the EC50 is 94 nM.
Regarding `CCc1nnc(SCC(=O)Nc2nnc(-c3ccc(C(C)C)cc3)s2)n1CC` [Example 20, 2-[(diethyl-4H-1,2,4-triazol-3-yl)sulfanyl]-N-{5-[4-(propan-2-yl)phenyl]-1,3,4-thiadiazol-2-yl}acetamide], the EC50 is 79 nM and the pEC50 in the inhibition of human aquaporin 9 was 7.1.
For `CCc1nnc(SCC(=O)Nc2nnc(-c3ccc(O)cc3)s2)n1CC` [Example 21, 2-[(diethyl-4H-1,2,4-triazol-3-yl)sulfanyl]-N-[5-(4-hydroxyphenyl)-1,3,4-thiadiazol-2-yl]acetamide], the EC50 was 224 nM.
`CCn1c(CCOC)nnc1SCC(=O)Nc1nnc(-c2ccccc2)s1` [Example 22, 2-{[4-ethyl-5-(2-methoxyethyl)-4H-1,2,4-triazol-3-yl]sulfanyl}-N-(5-phenyl-1,3,4-thiadiazol-2-yl)acetamide]: the EC50 is 249 nM.
As to `CCn1c(CCOC)nnc1SCC(=O)Nc1nnc(-c2ccc(OC(C)C)cc2)s1` [Example 23, 2-{[4-ethyl-5-(2-methoxyethyl)-4H-1,2,4-triazol-3-yl]sulfanyl}-N-{5-[4-(propan-2-yloxy)phenyl]-1,3,4-thiadiazol-2-yl}acetamide], the EC50 was 39 nM and the pEC50 in the inhibition of human aquaporin 9 was 7.4.
